The conditions of data set [1]: patients, i.v. injections; cited from earlier work.
Data set [2] has as its system T-47D human breast carcinoma. The data set can be described thus: Cytotoxicity (% inhibition), trypan blue dye exclusion viable cell count, T-47D. The class given is cell-based. The method, then:
The chemotherapeutic activities of the silver (I) coordination complex were determined on T-47D human breast carcinoma and Jurkat T-cell acute lymphoblastic leukemia, and compared with cisplatin (Pt(NH3)2Cl2) at 385 μg/mL, corresponding to 250 μg/mL platinum, which is the same concentration used for Ag for the experiments described in Examples 1 and 2, below. The two tumor cell lines were chosen very carefully so as to include solid (T-47D) and disseminated (Jurkat) neoplasia. Cells are plated in a 96-well flat bottom tissue culture plates at 50,000 cells/well. The experiments were conducted by serial dilution.
All cell lines were grown and tested in complete RPMI-1640 medium supplemented with 10% FBS, 40 μg/mL GEN, HEPES buffer of pH=7.2, 2 mM L-glutamine and sodium pyruvate. Plates were incubated in 5% CO2 at 37° C. in a humidified incubator for 24 hrs. Human tumor cells were maintained in the log phase by routine passaging every 2-3 days.
To assess % inhibition of tumor cells, the number of viable cells were counted by trypan blue dye exclusion method on a hemocytometer by microscopy, and adjusted for concentration of cells/mL. Briefly, each well was plated and washed with PBS twice and then harvested with 0.5 mL of Trypsin/EDTA. Cells were diluted with 1 ml of culture media and stained with trypan blue dye.
To examine if there was any interaction between culture medium and test reagents, the test culture was also inoculated with the present reagents without the presence of any of the drugs. […] All experiments were done in triplicates, and the results are averaged and reported.
Regression models were applied to the data to assess the correlation between % inhibition and concentration. Multiple curve estimation procedure was employed, and the relative fit for each model was determined on the basis of the values of the correlation coefficient, r^2; the fit that gives r^2 values closer to 1.0 was selected. The regression equations were then integrated over the concentration intervals for each phase, and their sum was taken as the AUCt>24.

In data set [3] the test system is T-47D cells. The data set is described as follows: DeadEnd Colorimetric TUNEL assay for in-situ apoptosis, T-47D. It is filed as cell-based, human. Particulars: 18 hours of incubation. Here is the method:
(§1) Detection of in-situ apoptosis was performed by the DeadEnd Colorimetric TUNEL (terminal deoxynucleotidyltransferase nick end labeling) assay for the detection of apoptosis in cultured cells as described in Promega kit (Promega Corporation-2800 Woods Hollow Road, Madison, Wis. 53711-5399, USA). Briefly, control and apoptosis-induced cells were centrifuged, washed with PBS, and were fixed on glass slides coated with poly-L-lysine (Sigma-Aldrich). The cells were fixed by immersing the slides in 10% buffered formalin, 4% paraformaldehyde solution for 25 minutes at room temperature. The fixed cells were then washed twice with fresh PBS for 5 minutes at room temperature. The cells were permeabilized by immersing the slides in 0.2% Triton® X-100 solution in PBS for 5 minutes at room temperature. The slides were then rinsed twice with PBS for 5 minutes each at room temperature. The excess liquid was then removed by tapping the slides, and the cells were covered with 100 μL of Equilibration Buffer, and the slides were equilibrated for 8 minutes at room temperature. Then, 100 μL of rTdT reaction mix were added and blotted around the equilibrated areas. The slides were then incubated at 37° C. for an hour inside a humidifier. Then, the reactions were terminated, the slides were washed and 0.3% hydrogen peroxide, and other reagents and washing steps were conducted according to the manufacturer's instructions. The slides were then observed under a light microscope for apoptotic staining. For comparative purposes, apoptotic studies were also performed on cisplatin. […]
(§2) To examine the mode of inherent chemotherapeutic activities of silver (I) complexes, apoptosis was detected by the TUNEL assay for each cell line studies for Phases I, II and III identified above. […] The 18 and 6-hour incubation periods were chosen because it was determined in previous experiments of this work that induction of apoptosis of silver (I) complex was within these times for these two cell lines.

Data set [4] relates to Jurkat cells. The data set is described as follows: DeadEnd Colorimetric TUNEL assay for in-situ apoptosis, Jurkat. It is filed as cell-based, human. Particulars: 6 hours of incubation. Here is the method:
as §1, §2

The text below walks through data of patent US8048870B2, “Apoptosis-inducing antineoplastic silver (I) coordination complexes” (priority 2005, dated 2011).

Regarding silver arsphenamine, the “LOAEL (lowest-observed-adverse-effect level) for argyria” value in data set [1] is 0.014 mg/kg/day.
As for `N.N.[Cl][Pt][Cl]` [CIS-Pt, cis-diaminedichloroplatinum (II)], the “calculated AUCt>24” value in data set [2] (Phase I) is recorded as 0.0 cfu·μg/mL; in data set [2] (Phase II), 2.05 cfu·μg/mL; in data set [2] (Phase III) it was 107 cfu·μg/mL. Moreover, the average % inhibition in data set [2] (range of 0.0019-0.0152 μg/mL metal) is listed as 0%. The “apoptotic staining (TUNEL)” value is given as “absent” in data set [3] (0.0076 μg/mL (Phase I)); “evident” in data set [3] (3.906 μg/mL (Phase II)); “evident” in data set [3] (15.625 μg/mL (Phase III)); “evident” in data set [4] (0.0076 μg/mL (Phase I)); “evident” in data set [4] (3.906 μg/mL (Phase II)); “evident” in data set [4] (15.625 μg/mL (Phase III)).
